The conditions of data set [1]: Acta Physiologica Sinica 2007; cited from earlier work.
In data set [2] the test system is myocardial cells. Kind of data set: Myocardial cell viability (MTT) after hypoxia. The following applies: hypoxia 6 hours; 10^−6 mol/L; vs vehicle (MI) group; p<0.01. It is filed as cell-based, rat. On the procedure:
The heart sample of 3 day old Sprague-Dawley (SD) rat (first generation) was washed in PBS (phosphate balanced solution) under sterilized condition. The sample is digested in 0.08% pancreatic enzyme solution 37 degree C for 10 minutes in a flask, wherein the solution was stirred constantly. In order to stop the digestion, serum was added into the flask and mixed with the solution. The digesting process was repeated 8 times, and the supernatant of each digestion was collected. The supernatant was centrifuged 2,000/minute for 5 minutes, and the myocardial cells were collected each time. The myocardial cell density was adjusted to 10^6/sample and cultured in DMEM containing 10% calf serum for 3 days.
The cultured myocardial cells were divided into the following groups:
Control group, no Leonurine treatment, no hypoxia process.
Hypoxia (vehicle, MI) group, no Leonurine treatment, under hypoxia condition for 6 hours.
Leonurine group, under hypoxia condition for 6 hours then cultured with corresponding treatment of Leonurine 10^−6 mol/L. […]
Myocardial cell viability was assessed by MTT method, which is the measurement of the reduction of 3-(4,5-dimethylthiazol-2-yl)-2,5-diphenyltetrazolium bromide (MTT). […] The amount of formazan was measured using a microplate reader at spectrum 570 nm.

Data set [3] deals with myocardial cells. Kind of data set: LDH leakage (release) from hypoxia injured myocardial cells. The following applies: hypoxia 6 hours; 10^−6 mol/L; vs vehicle (hypoxia) group; p<0.01. It is filed as cell-based, rat. On the procedure: Myocardial cell samples were obtained from the same procedure of Example 1A, the experiment groups were divided and hypoxia experiments were performed on Control group (no Leonurine treatment, no hypoxia/reoxygenation process), vehicle (hypoxia) group (no Leonurine treatment, under hypoxia condition for 6 hours), and Leonurine group (10^−6 mol/L). Myocardial cells were obtained from each sample (10^6 myocardial cells/sample) from the Control group, vehicle (hypoxia) group, Leonurine group. The cells were lysed under sterilized condition, and LDH (Lactate Dehydrogenase) contents in each sample of the cells were tested by pyruvic acid production method, using LDH content in Control sample cells as standard of 100%. The rate of LDH leakage (release) was calculated, which is the difference between LDH content of Control group samples and vehicle (hypoxia) group or Leonurine group or Losartan group.

Data set [4] has as its system myocardial cells. Kind of data set: Catalase activity of myocardial cells under hypoxia. It is filed as cell-based, rat. The following applies: 10^−6 mol/L. The procedure:
Myocardial cell samples were obtained from the same procedure of Example 1B, and the experiments were performed same as Example 1B with the same dosages and same conditions. Catalase can catalyze oxygen free radicals, its activity in Leonurine treated hypoxia cells groups is elevated. (FIG. 3)

Data set [5] has as its system myocardial cells. Kind of data set: SOD and CuZn-SOD activities of myocardial cells under hypoxia. To be noted: 10^−6 mol/L. It is filed as cell-based, rat. The procedure: Myocardial cell samples were obtained from the same procedure of Example 1B, and the experiments were performed same as Example 1B with the same dosages and same conditions. SOD (superoxide dismutase) plays an important role in balancing oxidant and antioxidant system in an organism. SOD can eliminate superoxide free radicals, thereby protect cells from injury. The activities of SOD and CuZn-SOD in Leonurine treated hypoxia cells are elevated. […] (FIG. 4)

In data set [6] the test system is myocardial cells. Kind of data set: MDA content of myocardial cells under hypoxia (TBA method). It is filed as cell-based, rat. To be noted: 10^−6 mol/L. The procedure: Myocardial cell samples were obtained from the same procedure of Example 1B, and the experiments were performed same as Example 1B with the same dosages and same conditions. Oxygen free radicals produced by enzyme and non enzyme systems in an organism attack poly unsaturated fatty acid in biomembrane, inducing lipid peroxidation and producing MDA (malondialdehyde). MDA can react with thiobarbituric acid (TBA), forms red product, which can be detected in spectrophotometer at 532 nm. The level of MDA can be used to indicate lipid peroxidation, thereby reflect condition of cell injury.

Data set [7] deals with myocardial ischemic rat. The experiment in a line: Infarct size (TTC staining) and mortality in MI rat model (coronary artery ligation). It is filed as in vivo. The following applies: MI rats, 7.5 or 15 mg/Kg/day intraperitoneal, vs saline.
Data set [8] relates to myocardial ischemic rat. The experiment in a line: Plasma LDH and CK levels in MI rat model. Format: in vivo. To be noted: MI rats; 7.5 or 15 mg/Kg/day intraperitoneal; p<0.05. On the procedure: MI injuries myocardial cells and CK and LDH levels are increased in the serum of the animals. After MI, the animal plasma CK level and LDH level were measured, and Leonurine's effects were assessed. Same MI models in same rat groups as Experiment 2A were established. Plasma CK levels were detected with diagnostic kit (NJBI, China) according to the instructions. LDH were determined colorimetrically with a spectrophotometer. […] (FIG. 7 and FIG. 8)

Data set [9] concerns myocardial ischemic rat. The experiment in a line: Plasma MDA level and left ventricle SOD activity in MI rat model. Format: in vivo. The following applies: MI rats; 7.5 or 15 mg/Kg/day intraperitoneal. The source says: MDA reflect lipid peroxidation level in MI injuries myocardial cells. SOD plays an important role in balancing oxidant and antioxidant system in an organism. SOD can eliminate superoxide free radicals, thereby protect cells from injury. Same MI models in same rat groups as Experiment 2A were established. Plasma MDA level and left ventricle SOD activity were detected. […] (FIG. 9 and FIG. 10)

For a further data set, the system named is Bcl-2 and Bax. Kind of data set: Bcl-2 and Bax mRNA and protein levels in MI rat model. To be noted: MI rats; 7.5 or 15 mg/Kg/day intraperitoneal. It is filed as in vivo. The text has this: Bax is a gene promoting cell apoptosis. Bcl-2 is an anti apoptosis gene. Same MI models in same rat groups as Experiment 2A were established. mRNA and protein levels of Bax and Bcl-2 were detected. […] (FIG. 11 and FIG. 12)

In data set [10] the test system is animal heart failure model. Kind of data set: Cardiac function by catheterization in rat heart failure model. It is filed as in vivo. To be noted: HF rats, 8 weeks. The procedure: (§1) Heart failure (HF) animal model, which was occlusive ligation of anterior descending coronary artery, was employed. All treatment was given via intragastric administration. The experimental period was 8 weeks. HF was induced on day eight by ligation of the left anterior descending coronary artery at approximately 2-3 mm from its origin. Briefly, the rats were anesthetized with 7% choral hydrate (60 mg/kg), endotracheally intubated and mechanically ventilated with room air, respiratory rate 100 breaths/min, tidal volume 2.5 ml with a rodent ventilator (DHX-150, China). ECG was recorded in the anaesthetized animal for a period of one minute using the Animal Mflab200 amplifier (Produced in China) as controls. A left thoracotomy was performed and the third intercostal space was exposed. The proximal left anterior descending coronary artery, which supplies blood to left ventricle of the heart, was ligated at the position 2-3 mm from the aorta with a 5-0 atraumatic suture that was passed through the superficial layers of myocardium, between the left auricle and the cone of pulmonary artery. […] Then incisions were sutured and the chests were closed. Sham operated rats were prepared in the same manner except the left coronary was not ligated. After completion of the surgical procedures, rats were removed from the ventilator and the endotracheal tube removed. The rats were kept warm, given water and food after they were awake from the anesthesia and kept in different cages according to experiment groups. The rats in correspondent experiment groups were given corresponding dosages of Leonurine continuously for 8 weeks, while the rats in control and MI groups were given no Leonurine. Two days after ligation, surviving rats were performed in four groups of rats in random fashion. Group 1: Sham-operated rats. The rats served as controls and received saline throughout the study. Group 2: Heart failure rats. This group consisted of rats with heart failure that received saline. Group 3: Heart failure plus low dose leonorine (15 mg/kg/day). Group 4: Heart failure plus high dose leonorine (30 mg/kg/day). All treatment was given via intragastric administration. The experimental period was 8 weeks. To evaluate the effect of Leonurine on HF, catheterizations to arteries and ventricles are performed to record heat rate (HR), mean aortic pressure (MAP), Left Ventricular Systolic Pressure (LVSP), Left Ventricular End-Diastolic Pressure (LVEDP), peak positive first derivative of left ventricular pressure (+dP/dt), peak negative first derivative of left ventricular pressure (−dP/dt). Data from the measurement of the recording were analyzed to observe the effect of Leonurine. Furthermore, plasma cysteine level and plasma ascorbic acid level were measured by capillary electrophoresis.

Data set [11] is described as follows: Plasma Leonurine, cysteine and ascorbic acid levels (capillary electrophoresis) in rat heart failure model. It is filed as in vivo. The following applies: HF rats; for plasma Ascorbic acid level / plasma Cysteine level: 8 weeks; for concentration at 8 weeks: rat, plasma, oral, read-out: plasma Leonurine level. On the procedure: as §1
A further data set relates to creatine kinase (CK). To be noted: concentration- and time-dependent; Zhao Wang et al. 2004; cited from earlier work.
The subject of data set [12] is vascular smooth muscle cells. To be noted: Chen and Kwan, Life Sciences 2001; cited from earlier work.

Molecules are shown by their SMILES. Like-named read-outs stand apart in the source and are kept apart here.

Regarding `COc1cc(C(=O)OCCCCNC(=N)N)cc(OC)c1O` [Kardigen], in data set [1], the anti-oxidative effects result was “has anti-oxidative effects” and the “prevention of ischemia cardiomyopathy” value is on record as “can prevent ischemia cardiomyopathy effectively”.

Turning to `COc1cc(C(=O)OCCCCNC(=N)N)cc(OC)c1O` [Leonurine], in the data set on myocardial cells [2], the “survival rate of myocardial cell (cell viability)” value was “significantly increase”. Moreover, the “LDH leaking (release) rate” value with myocardial cells [3] was “lower”. The Catalase activity result with myocardial cells [4] is on record as “elevated”. Further, in the data set on myocardial cells [5], the CuZn-SOD activity result is recorded as “elevated” and the SOD activity entry is recorded as “elevated”. Besides, the “MDA level from lipid peroxidation” value in the data set on myocardial cells [6] is on record as “inhibited”. For the same compound, in the data set on myocardial ischemic rat [7] (7 days before and 2 days after ligation), the “infarct size of myocardium” value was “significantly less”. The mortality rate entry in the data set on myocardial ischemic rat [7] is recorded as “not difference”. In the data set on myocardial ischemic rat [8], the “plasma CK level” value is listed as “significantly reduce” and the “plasma LDH level” value was “significantly reduce”. Moreover, in the data set with myocardial ischemic rat [9], the “left ventricle SOD activity” value was “increase” and the “plasma MDA level” value was “significantly reduce”. Moreover, in the data set on Bcl-2 and Bax, the “Bax mRNA expression” value is “significantly reduce”, the Bax protein expression result is recorded as “significantly reduce”, the “Bcl-2 mRNA expression” value is given as “increase” and the Bcl-2 protein expression entry was “increase”. In data set [10] (15 mg/kg/day intragastric), the HR is recorded as 441 ± 29 beats/min, the LVEDP is on record as 11.53 ± 1.83 mmHg, the LVSP came to 143.77 ± 26.82 mmHg and the MAP is given as 107.86 ± 31.23 mmHg. Moreover, in data set [10] (15 mg/kg/day intragastric), the dP/dt came to 4205 ± 412.71 mmHg/s and the “−dP/dt” value is recorded as −4368.83 ± 662.12 mmHg/s. Further, in [10] (30 mg/kg/day intragastric), the HR amounted to 427 ± 78 beats/min, the LVEDP came to 13 ± 5.96 mmHg, the LVSP stood at 126.37 ± 2.28 mmHg and the MAP is given as 92.59 ± 10.91 mmHg. Besides, in data set [10] (30 mg/kg/day intragastric), the dP/dt turned out to be 4095 ± 433.45 mmHg/s and the “−dP/dt” value is given as −3276.62 ± 283.77 mmHg/s. Besides, in data set [11] (15 mg/kg/day intragastric), the “plasma Ascorbic acid level” value turned out to be 26.02 ± 3.95 µmol/L, the “plasma Cysteine level” value was 31.3 ± 21.32 µmol/L and the concentration at 8 weeks was determined as 7.42 ± 3.13 µM. For the same compound, in data set [11] (30 mg/kg/day intragastric), the “plasma Ascorbic acid level” value was 39.79 ± 4.33 µmol/L, the “plasma Cysteine level” value came to 35.29 ± 9.73 µmol/L and the concentration at 8 weeks is 48 ± 11 µM. Also, in the data set with creatine kinase (CK), the “activity of creatine kinase (CK)” value was “inhibits the enzyme activity”. Also, in data set [12], the “contraction of the smooth muscle cells” value is recorded as “inhibiting”; the “intracellular calcium ion release and outside calcium ion influx through calcium channels” value was “inhibits”.

Regarding `CCCCc1nc(Cl)c(CO)n1Cc1ccc(-c2ccccc2-c2nn[nH]n2)cc1` [Losartan, reference compound], in the data set with myocardial cells [3], the “LDH leaking (release) rate” value is reported as “lower”.

(Values after patent publication US20090036527A1, “Therapeutic Application Of Leonurine In Treating Cardiomyopathy” (priority 2007, published 2009).)
